Test results as given in patent publication US20110136858A1, “Preferred Combination Therapy” (priority 2009, published 2011).
pEC50: −log10 of the molar value.

Experiments:
TGF-beta1 = assay: Functional assay for TGF-beta Production Stimulator activity: suppression of smooth muscle cell proliferation reversible by neutralising anti-TGF-beta1 antibody; type: cell-based, rat; conditions: for pEC50: rat aortic smooth muscle cells in culture, 72 hrs, suppression of proliferation reversible by neutralising antibodies to TGF-beta1, from dose-response curves of FIG. 2, read-out: ED50 for the TGF-beta Production Stimulator activity
Excerpt: In order compare Droloxifene with other triphenylethylenes, we have exploited a functional assay for TGF-beta1 activity. Alternative approaches are less suitable for various reasons: it is not possible to directly measure TGF-beta protein production by cultured cells in response to triphenylethylenes because the TGF-beta that is produced remains associated with the cells or the extracellular matrix and is therefore not available for assay (for example, by ELISA) in the conditioned medium from the cultured cells. […] The specificity of such an assay is achieved by comparing the rate of proliferation of the smooth muscle cells in the presence or absence of a validated, highly specific neutralising antibody against TGF-beta (or TGF-beta1, as required).
The cells were prepared by enzyme dispersion of isolated rat aortae exactly as described previously (Grainger et al (1993) Biochem. J. 294(1):109-12 and the references therein). The cells were cultured (37° C.; 5% CO2) in DMEM+10% foetal calf serum (FCS), and subcultured every 4 days at 1:2 dilution, using 0.02% trypsin/EDTA (Gibco). Experiments were performed between the sixth and twentieth subculture.
For the experiments, the cells were subcultured into 12-well cluster plates, and allowed to grow for 24 hrs. […] The cells were then incubated for 72 hrs. All treatment conditions were established in triplicate. One triplicate of cells was counted (see below) at 0 h. All other wells were counted at 72 hrs.
The number of cells in each well was determined as follows: the well was washed three times with serum-free DMEM, aspirated and then incubated with 100 μl of trypsin/EDTA solution (Gibco) for 2 minutes at 37° C. Complete release of the cell monolayer was confirmed microscopically. The cell density in portion of this suspension was determined by counting using an Improved Neubauer hameocytometer, ensuring the suspension was uniform by gentle pipetting, prior to sampling. The cell density was converted to the absolute number of cells present in the well by multiplying the number of cells per μl by the total volume of suspension (100 μl). For each condition, the mean number of cells at the end of the experiment was calculated by meaning the number of cells in each well of triplicate.
The extent of proliferation of the cell culture under each condition was determined by subtracting the mean number of cells at time Oh from the mean number of cells under that condition at time 72 h. The amount of TGF-beta1 activity under each condition was determined by subtracting the inhibition of growth achieved in the presence of neutralising anti-TGF-beta1 antibody (AB-101-NA; R&D Systems) from the inhibition of growth achieved in the absence of antibody.

[1] = Effect of co-administration of triphenylethylenes on clopidogrel metabolism in vivo (CLP*-acetamide by LC-MS); design: species or system Sprague-Dawley rats; conditions: rats, 0.1 to 10 mg/kg analog with 10 mg/kg clopidogrel
Experimental: Adult male Sprague-Dawley rats are dosed with various triphenylethylenes at different doses from 0.1 mg/kg to 10 mg/kg (spanning the likely doses such compounds would be used in man), or with vehicle only, and simultaneously dosed with 10 mg/kg clopidogrel, both by oral gavage. Blood samples are drawn through an in-dwelling jugular catheter at 0.5, 1, 2, 4, 8 and 24 hrs post-dose, and serum is prepared by conventional methods well known in the art.
The level of CLP*, the active metabolite of clopidogrel is then determined in each blood sample by LC-MS by collecting the blood samples in tubes containing the thiol alkylating agent iodeoacetamide. Iodoacetamide reacts with CLP* to generate a stable product which can be detected by LC-MS using standard methodology well known in the art. An authentic sample of the acetamide adduct of CLP* is used to quantify the level of CLP*-acetamide in the sample. […] The concentration of CLP*-acetamide adduct can therefore be assumed to be proportional to the concentration of CLP*. The pharmacokinetics of CLP*-acetamide are then compared under the different conditions, using standard pharmacokinetics models implemented with WinNonLin.

[2] = chronic Tamoxifen users; translated from the relative risk; cited from earlier work

effect on clopidogrel metabolism (in words) [1]	Structure (SMILES)	pEC50 (TGF-beta1)	reduction in risk of death from myocardial infarction [2]	activity as Production Stimulator for TGF-beta1 (in words) (TGF-beta1; rat aortic smooth muscle cells)
no effect	CC/C(=C(/c1ccc(OCCN(C)C)cc1)c1cccc(O)c1)c1ccccc1 [Droloxifene, (E)-1-(4′-(2-dimethylaminoethoxy)phenyl)-1-(3-hydroxyphenyl)-2-phenylbut-1-ene]	5.52		
	CN(C)CCOc1ccc(/C(=C(/CCCl)c2ccccc2)c2ccccc2)cc1 [Toremifene]	5.00		
	CC/C(=C(\c1ccccc1)c1ccc(OCCN(C)C)cc1)c1ccccc1 [Tamoxifen]		33%	
	O=C(c1ccc(OCCN2CCCCC2)cc1)c1c(-c2ccc(O)cc2)sc2cc(O)ccc12 [Raloxifene]	< 4.00		does not have measurable activity
	CC/C(=C(\c1ccc(I)cc1)c1ccc(OCCN2CCCC2)cc1)c1ccccc1 [Idoxifene]	5.30		
